Test results: ChEMBL document CHEMBL6153047, “Sulfilimines from a Medicinal Chemist's Perspective: Physicochemical and in Vitro Parameters Relevant for Drug Discovery” (J Med Chem, 2025)
In brackets after ≈: the same amount, converted by molar mass.

How the values were obtained:
[1] = Lipophilicity, logD of compound at pH 7.4 by UPLC-UV-MS analysis; format: physicochemical; conditions: buffer
[2] = Chemical stability assessed as compound decomposition at pH 1 and 40 degreeC measured after 3 days by HPLC-UV analysis; format: physicochemical; conditions: buffer, time 3 day, read-out: Drug degradation
[3] = Chemical stability assessed as compound decomposition at pH 4 and 40 degreeC measured after 3 days by HPLC-UV analysis; format: physicochemical; conditions: buffer, time 3 day, read-out: Drug degradation
[4] = Chemical stability assessed as compound decomposition at pH 7.4 and 40 degreeC measured after 3 days by HPLC-UV analysis; format: physicochemical; conditions: buffer, time 3 day, read-out: Drug degradation
[5] = Chemical stability assessed as compound decomposition at pH 10 and 40 degreeC measured after 3 days by HPLC-UV analysis; format: physicochemical; conditions: buffer, time 3 day, read-out: Drug degradation
[6] = Aqueous solubility of compound at pH 6.8 incubated for 24 hrs by LC-UV analysis; format: physicochemical; conditions: buffer, pH 6.8, 24 h
[7] = Stability in human liver microsomes assessed as hepatic extraction ratio at 1 uM preincubated with compound followed by NADPH addition by LC-MS/MS analysis; format: ADME, Microsome; conditions: read-out: ERH
[8] = Stability in mouse liver microsomes assessed as hepatic extraction ratio at 1 uM preincubated with compound followed by NADPH addition by LC-MS/MS analysis; format: ADME, Microsome; conditions: read-out: ERH
[9] = Permeability across apical to basal side in human Caco-2 cells measured upto 2 hrs; format: ADME, cell-based; conditions: caco-2, 2 h
[10] = Stability in human hepatocytes assessed as hepatic extraction ratio at 1 uM incubated for 6 hrs by HPLC-MS/MS analysis; format: ADME, cell-based, Hepatocyte; conditions: read-out: ERH
[11] = Efflux ratio in human Caco-2 cells measured upto 2 hrs; format: ADME, cell-based; conditions: caco-2, 2 h
[12] = Dissociation constant, pKa of compound by UV spectroscopy; format: physicochemical
[13] = Apparent permeability of compound incubated for 5 hrs by PAMPA assay; format: ADME
[14] = Protein binding in human plasma at 1 uM incubated for 5 hrs by rapid equilibrium dialysis; format: ADME, cell-free

Structure (SMILES) | logD [1] | degraded at 72 h [2] [%] | degraded at 72 h [3] [%] | degraded at 72 h [4] [%] | degraded at 72 h [5] [%] | solubility [6] [µg/mL] | hepatic extraction ratio at 1 µM [7] | hepatic extraction ratio at 1 µM [8] | permeability [9] | hepatic extraction ratio at 6 h, 1 µM [10] | Ratio [11] | pKa [12] | Papp at 5 h [13] [×10⁻⁶ cm/s] | PPB [14] [%] | logD ([1]; read-out: logD)
N#C/N=S(\c1ccc(C(F)(F)F)cc1)C1CC1 (stereo unspecified) | 2.2 | 72 | 9 | < 0.1 | < 0.1 | 42 (≈ 163 µM) | < 0.23 | 0.43 | 100 10^-6 cm/s | 0.18 | 0.7 | – | – | – | –
CC(=O)/N=S(\c1ccc(C(F)(F)F)cc1)C1CC1 (stereo unspecified) | 1.7 | 20 | 8 | 7 | 8 | 38 (≈ 138 µM) | < 0.23 | < 0.23 | 85 10^-6 cm/s | 0.1 | 0.7 | – | – | – | –
FC(F)(F)c1ccc(/S(=N\c2ccccc2)C2CC2)cc1 (stereo unspecified) | 3.5 | 80 | 2 | 9 | 7 | 41 (≈ 133 µM) | > 0.89 | > 0.88 | 43 10^-6 cm/s | 0.73 | 0.7 | 7.2 | – | – | –
COc1ccc(/S(C)=N\C(=O)C(C)(C)C)cc1 (stereo unspecified) | 2 | – | – | – | – | – | 0.27 | 0.65 | 69 10^-6 cm/s | 0.58 | 0.8 | – | – | – | –
CCOC(=O)/C(=S(/NC(=O)C(C)(C)C)c1ccccc1)P(=O)(OCC)OCC (stereo unspecified) | 3 | 57 | < 0.5 | < 0.5 | < 0.5 | > 87 | > 0.23 | 0.41 | 25 10^-6 cm/s | – | 1.9 | – | – | – | –
Cc1ccc(S(=O)(=NC(=O)C(C)(C)C)c2ccccc2)cc1 (stereo unspecified) | 4.2 | 16 | 0 | 0 | 0 | < 1 | 0.61 | > 0.88 | 51 10^-6 cm/s | 0.33 | 0.7 | – | – | – | –
COC(=O)/N=S(\c1ccc(C(F)(F)F)cc1)C1CC1 (stereo unspecified) | 2.1 | 27 | 10 | 10 | 11 | 26 (≈ 89.3 µM) | < 0.23 | 0.38 | 88 10^-6 cm/s | 0.29 | 0.8 | – | – | – | –
Cc1ccc(NC(=O)c2ccc(P(C)(C)=O)cc2)cc1Nc1nccc(-c2cccnc2)n1 | 1.4 | – | – | – | – | 58 (≈ 127 µM) | < 0.23 | 0.35 | – | < 0.04 | > 100 | – | 0.043 | 83.8 | –
N=S(c1ccc(C(F)(F)F)cc1)c1cccnc1 (stereo unspecified) | – | 4 | 1 | 3 | 1 | 49 (≈ 181 µM) | < 0.23 | 0.26 | 93 10^-6 cm/s | 0.08 | 0.9 | – | – | – | –
CCS(=N)c1ccc(C(F)(F)F)cc1 (stereo unspecified) | 0.7 | 17 | 5 | 13 | 97 | – | < 0.23 | < 0.23 | – | 0.17 | 0.9 | – | – | – | –
C[S+]([O-])c1ccc(C(F)(F)F)cc1 (stereo unspecified) | 1.9 | – | – | – | – | > 46 | – | – | 130 10^-6 cm/s | 0.19 | 0.8 | – | – | – | –
CC(C)(C)C(=O)/N=S(\c1ccc(C(F)(F)F)cc1)C1CC1 (stereo unspecified) | 3.5 | 0.9 | 4 | 4 | 3 | 51 (≈ 161 µM) | < 0.23 | 0.59 | 90 10^-6 cm/s | 0.16 | 0.7 | – | – | – | –
COc1ccc(/S(=N/C(=O)C(C)(C)C)c2ccc(C)cc2)cc1 (stereo unspecified) | 4 | < 0.5 | 2 | 2 | 1 | 59 (≈ 179 µM) | 0.44 | > 0.88 | 72 10^-6 cm/s | 0.46 | 0.7 | – | – | – | –
Cc1ccc(S(=N)(=O)c2ccccc2)cc1 (stereo unspecified) | – | < 0.5 | < 0.5 | < 0.5 | < 0.5 | > 47 | 0.45 | 0.66 | 93 10^-6 cm/s | 0.46 | 0.8 | 2.4 | – | – | –
CC(=O)/N=S(/c1ccccc1)c1ccc(C)cc1 (stereo unspecified) | 2 | 22 | 5 | 4 | 4 | > 52 | < 0.23 | 0.63 | 85 10^-6 cm/s | 0.26 | 0.8 | – | – | – | –
CS(=N)(=O)c1ccc(C(F)(F)F)cc1 (stereo unspecified) | 1.5 | – | – | – | – | > 50 | < 0.23 | < 0.23 | – | 0.08 | – | 2.5 | – | – | –
CS(=O)(=O)c1ccc(C(F)(F)F)cc1 | 2.3 | – | – | – | – | > 47 | – | – | – | – | – | – | – | – | –
Cc1ccc(S(=N)C2CC2)cc1 (stereo unspecified) | – | 8 | 3 | 0.5 | 7 | 27 (≈ 151 µM) | < 0.23 | < 0.23 | – | 0.57 | 0.7 | 10.9 | – | – | 0.3
COC(=O)C(C(=O)OC)=S(NC(=O)C(C)(C)C)c1ccccc1 (stereo unspecified) | 2.5 | 58 | < 0.1 | 6 | 7 | > 76 | > 0.89 | 0.63 | > 10 10^-6 cm/s | – | < 1 | – | – | – | –
Cc1ccc(S(=O)(=O)c2ccccc2)cc1 | 3.3 | – | – | – | – | – | – | – | 39 10^-6 cm/s | 0.78 | 0.6 | – | – | – | –
